Measurements as given in patent US8658206B2, “Compositions comprising strontium and vitamin D and uses thereof” (Mokwalo SA, priority 2004, dated 2014).

Assays:
[1] = relative to cholecalciferol itself; cited from earlier work
[2] = Determination of solubility velocity by ICP-MS in 0.1 M hydrochloride solution; details: 0.1 M HCl, 37° C., 84Sr signal by ICP-MS
Protocol: Determination of Solubility Velocity by Inductively Coupled Plasma-Mass Spectrometry (ICP-MS)
The solubility is measures as strontium signals over time using ICP-MS. Using this technique it is possible to follow multiple isotopes of the element, here, ^84Sr, ^86Sr, ^87Sr and ^88Sr.
A hydrochloride solution (0.1 M) was added to the sample and the sample then immediately enters, by means of a peristaltic pump, the atomizer of the ICP-MS apparatus. The pump speed was 4.4 ml/min.
The hydrochloride concentration of 0.1 M equals the concentration of HCl in the stomach. The temperature of the HCl solution was 37° C.
The solubility velocity of the compound is obtained by analysing the slopes of the front curves. The first curve represents the experiment and the second curve the apparatus, thus the difference between the slopes of the two curves are used to calculate the solubility velocity by division with the top value.

SMILES	times more effective in terms of bioavailability than cholecalciferol [1]	solubility velocity in hydrochloride [2]
C=C1CC[C@H](O)C/C1=C/C=C1\CCC[C@]2(C)[C@@H]([C@H](C)CCCC(C)(C)O)CC[C@@H]12 [25-hydroxycholecalciferol]	five	
C=C1/C(=C\C=C2/CCC[C@]3(C)[C@@H]([C@H](C)CCCC(C)(C)O)CC[C@@H]23)C[C@@H](O)C[C@@H]1O [1,25 dihydroxycholecalciferol]	ten	
[Cl-].[Cl-].[Sr+2] [strontium chloride]		very high
